{"source": "patent US8710068B2", "about": "“Method of treating cancer using a survivin inhibitor” (The Trustees Of The University Of Pennsylvania, priority 2009, dated 2014)", "key": {"HCT116(p53+/+) cells": {"test_system": "HCT116(p53+/+) cells", "assay": "MTT viability assay, HCT116(p53+/+)", "assay_type": "cell-based", "conditions": "48 hours", "method": "(§1) FIG. 4 illustrates the effects of S12 on proliferation of p53-positive and p53-negative cancer cells. (A) HCT116(p53+/+) or HCT116(p53−/−) cells were treated with DMSO or S12 at the indicated concentrations for 48 hours. The percentage of viable cells was evaluated by MTT assay.\n(§2) Thus, inhibition of cell proliferation by S12 is independent of p53 status."}, "Sur-F86A": {"target": "T1, Sur-F86A (Homo sapiens, UniProt O15392, F86A)", "T1 construct": "made in house; host or cells: bacteria", "T1 sequence (O15392 whole entry F86A)": "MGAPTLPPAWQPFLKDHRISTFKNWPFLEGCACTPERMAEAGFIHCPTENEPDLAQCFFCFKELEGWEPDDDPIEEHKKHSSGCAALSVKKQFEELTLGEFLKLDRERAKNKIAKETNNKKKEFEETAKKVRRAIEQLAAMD", "assay": "ITC binding to Survivin mutant F86A", "conditions": "in words", "method": "(§3) FIG. 5 illustrates an analysis of S12-Survivin binding with isothermal titration calorimetry (ITC). Single-site point mutagenesis was performed to create the Survivin mutants F86A and V89Y. The native and the mutant proteins were produced and purified from bacteria.\n(§4) In order to examine the specificity of the binding, we generated point mutations on the Survivin protein at the site presumably targeted by S12. The two mutations were substitutions of phenylalanine 86 with alanine (F86A) and valine 89 with tyrosine (V89Y). These two altered sites are also adjacent to the interface involved in dimerization of the Survivin protein. Based on structural analyses, we predict that alterations of either of these two amino acid residues may abolish the binding of S12 without affecting the overall structure of the Survivin protein."}, "AsPC1 tumor xenograft": {"test_system": "AsPC1 tumor xenograft", "assay": "AsPC1 mouse xenograft tumor growth", "assay_type": "in vivo, athymic mice", "method": "FIG. 13 illustrates S12 inhibition of tumor growth in vivo. (A) AsPC1 cells were injected subcutaneously into the mid-dorsum of athymic mice. S12 was administered 10 days after the injection at the concentration of 5 mg/kg (blue triangles; middle line on the graph, n=4) or 15 mg/kg (red triangles; lower line on the graph; n=3). The control group was treated with PBS containing DMSO only (black square; upper line on the graph). The results represent the mean tumor volume+/− standard error (P<0.05). (B) In a second set of studies S12 was administered at the concentration of 15 mg/kg or 50 mg/kg (n=3). In both studies the control group was treated with PBS containing DMSO only. The results represented the mean tumor volume+/− standard error.\nThe effect of S12 on tumor growth was examined using a mouse xenograft model. The human pancreatic cell line AsPC1 was injected subcutaneously into athymic mice and formed palpable tumors within 10 days. S12 was then administered at the concentration of 5 mg/kg or 15 mg/kg three times per week until the end point of the experiment. The size of the tumors was monitored for up to 48 days after the initial grafting."}, "HCT116(p53−/−) cells": {"test_system": "HCT116(p53−/−) cells", "assay": "MTT viability assay, HCT116(p53−/−)", "assay_type": "cell-based", "conditions": "48 hours", "method": "as §1, §2"}, "HeLa cells": {"test_system": "HeLa cells", "assay": "Cell cycle analysis of DNA content by PI staining and FACS, HeLa", "assay_type": "cell-based, human", "conditions": "HeLa, FACS DNA content", "method": "FIG. 7 illustrates the effect of S2 or S12 on cell cycle progression. HeLa cells were treated with S2, S12, S10, S1 (control compound), or DMSO (control), propidium iodide (PI) staining and FACS analysis were performed to quantify the DNA content of cells.\nFIG. 9 illustrates the effect of S12 on mitosis. (A) HeLa cells were treated with S12, S2 or DMSO for 15 hours. The cells were then fixed and subjected to immunostaining using antibodies specific for Aurora B (green) and Survivin (red). DNA was stained with DAPI. Chromosome misalignment is indicated with the arrowheads. (B) Percentage of S12-treated cells in mitosis, in metaphase, in anaphase/telophase, or with misaligned chromosomes. (C) Percentage of S2-treated cells in mitosis, in metaphase, in anaphase/telophase, or with misaligned chromosomes. (D) HeLa cells were treated with S12 (10 μg/ml) or DMSO (control) for 15 hours. Cells were examined by PI staining of DNA content by FACS analysis.\nFIG. 17 illustrates (A) FACS analysis of DNA content of HeLa cells treated with SBDO3. Note the accumulation of cells at the G2/M stage. Cell death was also observed (sub-G1 population); (B) Immuno-fluorescence microscopy analysis of cell treated with SBDO3. Note that the microtubule bundles of the mitotic spindle are disorganized. The chromosomes are not aligned properly and cells cannot go through metaphase.\nThe candidate Survivin-targeting molecules identified by the virtual screen were examined for the ability to inhibit cell proliferation and mitosis. HeLa cells were treated with the compounds at various concentrations for 15 hours followed by examination of the DNA content by FACS analysis. […] The effects of S2 inflicted on cell proliferation and viability are consistent with the anticipated outcome caused by the ablation of Survivin functions. We have extended these studies to test a number of molecules that are structurally similar to S2, including S10, S11, S12 and S13. […] S12 affected cell proliferation and viability, consistent with the anticipated outcome caused by ablation of Survivin functions.\nWe analyzed distribution of cells in the different stages of the cell cycle by FACS. […] In addition, the inhibitory effect of SBDO3 is dose dependent (FIG. 17A).\nWe also conducted immuno-fluorescence studies on SBDO3 treated HeLa cells."}, "Survivin protein": {"target": "T2, Survivin protein (Homo sapiens, UniProt O15392)", "T2 construct": "made in house; host or cells: bacteria", "assay": "Isothermal titration calorimetry (ITC) binding to native Survivin", "method": "as §3\nFIG. 16 illustrates the isothermal titration calorimetry profile of the binding of SBDO3 to the Survivin homodimer.\nas §4\nWe tested the binding of the Survivin target molecules to Survivin by isothermal titration calorimetry."}, "PARP": {"test_system": "PARP", "assay": "Western blot for PARP cleavage (caspase activation) and Survivin levels, HeLa", "assay_type": "cell-based, human", "conditions": "12 hours", "method": "(§5) FIG. 12 illustrates S12 induction of caspase activation in HeLa cells. (A) HeLa cells were incubated with DMSO (control), S12, Taxol, nocodazole (Noco), or etoposide (Etop) for 12 hours. The cell lysates were analyzed by Western blot using the anti-PARP antibody (top panel), the anti-α-tubulin antibody (middle panel), or the anti-Survivin antibody (bottom panel). (B) S12 causes cell death in a cell cycle dependent manner. HeLa cells, either unsynchronized or synchronized by thymidine treatment were incubated either with S12 or DMSO. Cell death was quantitated by trypan blue exclusion assay.\n(§6) We examined whether S12 treatment leads to apoptosis. HeLa cells were incubated with S12 at the concentration of 50 μg/ml or with DMSO alone for 12 hours. To compare the effect with that of other therapeutic agents, HeLa cells were also treated with Taxol, nocodazole, or etoposide, respectively. The cell lysates were collected and subjected to Western blot analysis using an anti-PARP antibody. […] We also re-probed the blot with an anti-Survivin antibody. […] These observations, combined with the earlier findings, indicate that the Survivin-targeting molecule S12 can block mitosis and cause apoptosis."}, "[1]": {"assay": "Western blot for PARP cleavage (caspase activation) and Survivin levels, HeLa", "assay_type": "cell-based, human", "conditions": "50 μg/ml, 12 hours, anti-Survivin Western blot", "method": "as §5, §6"}}, "data": [{"smiles": "O=C(CC1(O)C(=O)Nc2ccc(Br)cc21)c1ccc2c(c1)OCO2", "note": "(stereo not shown) [S12]", "values": [{"measurement": "reduction of cell viability", "setting": "HCT116(p53+/+) cells", "result": "equally effective at reducing cell viability"}, {"measurement": "binding to mutant Sur-F86A", "setting": "Sur-F86A", "result": "did not bind"}, {"measurement": "tumor volume", "setting": "AsPC1 tumor xenograft; 5 mg/kg or 15 mg/kg three times per week, up to 48 days", "result": "significantly lowered the tumor volume in a dose-dependent manner"}, {"measurement": "tumor regression", "setting": "AsPC1 tumor xenograft; dose raised to 50 mg/kg", "result": "enhancement of tumor regression"}, {"measurement": "reduction of cell viability", "setting": "HCT116(p53−/−) cells", "result": "equally effective at reducing cell viability"}, {"measurement": "accumulation of cells in the G2/M stage", "setting": "HeLa cells; 15 hours", "result": "accumulation of cells in the G2/M stage"}, {"measurement": "sub-G1 population (cell death)", "setting": "HeLa cells", "result": "increase of cells in the sub-G1 population"}, {"measurement": "binding to the Survivin protein", "setting": "Survivin protein; ITC, in words", "result": "can bind to the Survivin protein"}, {"measurement": "N (ITC stoichiometry)", "setting": "Survivin protein; isothermal titration calorimetry, native Survivin", "result": 1.00}, {"measurement": "Kd", "setting": "Survivin protein; isothermal titration calorimetry, native Survivin, read-out: K (ITC binding constant) (converted)", "result": 224, "unit": "nM"}, {"measurement": "cleavage of PARP (caspase activation)", "setting": "PARP; 50 μg/ml, Western blot", "result": "detected"}, {"measurement": "apoptosis induction compared with other agents", "setting": "PARP; at the concentrations employed", "result": "more potent in inducing apoptosis than Taxol, nocodazole, or etoposide"}, {"measurement": "overall Survivin levels", "setting": "[1]", "result": "did not significantly affect"}]}]}
